Reference: US4683242A, “Transdermal treatment for pain and inflammation with 2-amino-3-aroylbenzeneacetic acids, salts and esters” (A. H. Robins Company, Incorporated, priority 1985, dated 1987)
Where a name gives a salt, the structure may show the parent alone.

Tests used:
[1] = system: Carrageenan-Induced Rat-Paw Edema; experiment: Carrageenan Induced Rat-Paw Edema, dermal application (antiinflammatory); assay type: in vivo; conditions: for Measurement of Edema at 3 hr.: 4 hr pretreatment; for Activity applied dermally compared with orally for a given dose: dermal vs oral, Formula B cream (pH=3.5) for Example 74
Protocol: On the day prior to the test, an area of about 1"×1" of the lower back just above the tail of each of the rats was shaved and depilated with the commercially available hair removal preparation--Nair®. The rats were returned to the vivarium for feed and water.
The following day each rat was weighed and the volume of the left hind limb recorded. The rats were randomized into groups. Creams were applied in the following manner: 0.2 ml of the cream vehicle (control--no active agent) or formulation containing active ingredient was rubbed thoroughly onto the shaved depilated area of the rat's back for 10-15 seconds. The rats were immediately placed into plexiglass observation cylinders to restrict movement so as to prohibit accidental oral ingestion of the cream. The rats were then placed in a quiet room for 4 hr. Four hours after dosing, 0.1 ml of 1% carrageenan was injected into the left hind limb of each rat. The rats were returned to their observation cylinders and placed in the quiet room for an additional 3 hr time, after which the volume of the left hind limb was determined. The degree of edema was determined by subtracting limb volume at 0 time from the volume determined 3 hr after carrageenan injection. Two tail Dunnett's t-tests were used to compare the edema of the treated groups with the appropriate controls (Dunnet, C. W. (1955); J. AM. STAT. ASSOC. 50: 1096-1121).
Several compounds of Formula I were mixed with the creams as prepared above so as to obtain cream containing 3.2 weight percent of each compound based on the weight of free acid or the ester. Rats in groups of 6 (randomized) were each treated with 0.2 ml of the cream containing the compound using the foregoing Carrageenan Induced Rat-Paw Edema test. The control rats were treated with cream having no test compound.
In addition, one preferred compound was tested further using the foregoing Carrageenan-Induced Rat-Paw Edema test at various concentrations in the cream of Formula B (pH=3.5).

[2] = system: Acetylcholine Induced Abdominal Constriction; experiment: Acetylcholine Induced Abdominal Constriction Test in Mice, dermal application (analgetic); assay type: in vivo, mouse; conditions: Formula A cream pH = 7.0, 4 hr pretreatment
Protocol: Active agent was incorporated into the cream described under Formual A above (pH=7.0) at various concentrations calculated on a free acid basis.
Mice were prepared for the test by shaving an area measuring 3/4"×3/4" on their backs behind their heads and then depilating with Nair®, a cosmetic hair remover. The mice were given free access to feed and water prior to the experiment. On the following day the mice were weighed and fitted with a cardboard collar (13/4"×13/4" with a 1/2" hole in the center) around the neck to prevent ingestion of applied compounds. The mice were randomized into groups of 10 using random tables generated by the IBM scrambler. A table of random permutations of blocks of order 3 was used to select the control and treated groups. The randomized mice were fed and placed in individual observation cages 1 hr prior to application of 50 microliters of the cream (by rubbing onto the skin for approximately 10 seconds).
The mice acting as controls were treated with cream having no test compound in it. Four hours after the application of the cream to the depilated area, acetylcholine bromide was injected intraperitoneally at 6 mg/kg (10 ml/kg in saline) with a plastic syringe with a 5/8 inch, 25-gauge disposable needle. Each mouse was immediately placed under an inverted 1 liter beaker and observed for 3 minutes for the presence of abdominal constriction. If no abdominal constriction was observed during this period, the response was considered blocked. ED50 and 95% confidence limits were determined by computer using a probit analysis method. Ten mice were used at each concentration, including controls.
The following results in Table 5 were obtained using the foregoing method using the cream of Formula A (pH=7.0) as described above having mixed therein the compound of Example 74 in comparison to controls wherein no test compound was present.

[3] = quotation from Remington's, 16th Ed., page 1523; cited from earlier work
[4] = Table 3, Formula A cream, pH = 7.0, 0.2 ml, 3.2% by weight (free acid basis or ester), dermal
[5] = Table 3, Formula A cream, pH = 7.0, 0.2 ml, 3.2% by weight, dermal, p = <0.05
[6] = Table 4, first series, Formula B pH 3.5, 0.032 % (W/W), 0.37 mg/kg dermal
[7] = Table 4, second series, Formula B pH 3.5, 0.01 % (W/W), 0.10 mg/kg dermal
[8] = Table 4, second series, Formula B pH 3.5, 0.032 % (W/W), 0.32 mg/kg dermal
[9] = Table 4, second series, Formula B pH 3.5, 0.10 % (W/W), 0.94 mg/kg dermal

## Nc1c(CC(=O)O)cccc1C(=O)c1ccc(I)cc1 [Example 57, 2-Amino-3-(4-iodobenzoyl)benzeneacetic acid, sodium salt, hydrate [4:1]]
[1]; [4]
  Measurement of Edema at 3 hr.: 0.40 ± 0.14 ml ± S.D.
[1]; [5]
  % Change (edema vs control): -57%

## CCOC(=O)Cc1cccc(C(=O)c2ccc(Br)cc2)c1N [Example 69, 2-Amino-3-(4-bromobenzoyl)benzeneacetic acid, ethyl ester]
[1]; [4]
  Measurement of Edema at 3 hr.: 0.50 ± 0.20 ml ± S.D.
[1]; [5]
  % Change (edema vs control): -46%

## CSc1ccc(C(=O)c2cc(F)cc(CC(=O)O)c2N)cc1 [Example 19, 2-Amino-3-[(4-methylthio)benzoyl]-5-fluorobenzeneacetic acid, sodium salt]
[1]; [4]
  Measurement of Edema at 3 hr.: 0.55 ± 0.14 ml ± S.D.
[1]; [5]
  % Change (edema vs control): -41%

## CCOC(=O)Cc1cccc(C(=O)c2ccccc2)c1N [Example 5, 2-Amino-3-benzoylbenzeneacetic acid, ethyl ester]
[1]; [4]
  Measurement of Edema at 3 hr.: 0.27 ± 0.18 ml ± S.D.
[1]; [5]
  % Change (edema vs control): -71%

## Nc1c(CC(=O)O)cccc1C(=O)c1ccc(Br)cc1 [Example 74, 2-Amino-3-(4-bromobenzoyl)benzeneacetic acid, sodium salt, sesquihydrate]
[2]; 0.01 wt. % in 50 μl cream
  % Block: 0%
[2]; 0.032 wt. % in 50 μl cream
  % Block: 20%
[2]; 0.10 wt. % in 50 μl cream
  % Block: 60%
[2]; 0.32 wt. % in 50 μl cream
  % Block: 80%
[2]; 1.0 wt. % in 50 μl cream
  % Block: 80%
[2]; 3.16 wt. % in 50 μl cream
  % Block: 90%
[2]; probit analysis, 95% confidence limits (0.06-0.29)
  ED50 as % Concentration of Agent in Cream (95% Confidence Limits): 0.128%
[1]; Table 3, Formula B cream, pH = 3.5, 0.2 ml, 3.2% by weight (free acid basis), dermal
  Measurement of Edema at 3 hr.: 0.48 ± 0.17 ml ± S.D.
[1]; Table 3, Formula B cream, pH = 3.5, 0.2 ml, 3.2% by weight (free acid basis), dermal, sodium salt, sesquihydrate
  Measurement of Edema at 3 hr.: 0.38 ± 0.18 ml ± S.D.
[1]; [6]
  3 Hr. Edema: 0.73 ± 0.33 ml ± S.D.
  % Change (edema vs control): -26%
[1]; Table 4, first series, Formula B pH 3.5, 0.10 % (W/W), 1.1 mg/kg dermal
  % Change (edema vs control): -57%
[1]; Table 4, first series, Formula B pH 3.5, 0.10 % (W/W), 1.1 mg/kg dermal, p < 0.05
  3 Hr. Edema: 0.42 ± 0.21 ml ± S.D.
[1]; Table 4, first series, Formula B pH 3.5, 0.32 % (W/W), 3.7 mg/kg dermal
  % Change (edema vs control): -62%
[1]; Table 4, first series, Formula B pH 3.5, 0.32 % (W/W), 3.7 mg/kg dermal, p < 0.05
  3 Hr. Edema: 0.37 ± 0.19 ml ± S.D.
[1]; Table 4, first series, Formula B pH 3.5, 1.0 % (W/W), 11.9 mg/kg dermal
  % Change (edema vs control): -57%
[1]; Table 4, first series, Formula B pH 3.5, 1.0 % (W/W), 11.9 mg/kg dermal, p < 0.05
  3 Hr. Edema: 0.42 ± 0.10 ml ± S.D.
[1]; Table 4, first series, Formula B pH 3.5, 3.16 % (W/W), 36.5 mg/kg dermal
  % Change (edema vs control): -61%
[1]; Table 4, first series, Formula B pH 3.5, 3.16 % (W/W), 36.5 mg/kg dermal, p < 0.05
  3 Hr. Edema: 0.38 ± 0.18 ml ± S.D.
[1]; [7]
  3 Hr. Edema: 0.88 ± 0.33 ml ± S.D.
  % Change (edema vs control): +3%
[1]; [8]
  3 Hr. Edema: 1.05 ± 0.22 ml ± S.D.
  % Change (edema vs control): +22%
[1]; [9]
  3 Hr. Edema: 0.55 ± 0.20 ml ± S.D.
  % Change (edema vs control): -36%
[1]; Table 4, second series, Formula B pH 3.5, 0.32 % (W/W), 3.0 mg/kg dermal
  % Change (edema vs control): -52%
[1]; Table 4, second series, Formula B pH 3.5, 0.32 % (W/W), 3.0 mg/kg dermal, p < 0.05
  3 Hr. Edema: 0.42 ± 0.15 ml ± S.D.
[1]; Table 4, second series, Formula B pH 3.5, 1.0 % (W/W), 10.3 mg/kg dermal
  % Change (edema vs control): -57%
[1]; Table 4, second series, Formula B pH 3.5, 1.0 % (W/W), 10.3 mg/kg dermal, p < 0.05
  3 Hr. Edema: 0.37 ± 0.05 ml ± S.D.
[1]; Table 4, second series, Formula B pH 3.5, 3.16 % (W/W), 31.5 mg/kg dermal
  % Change (edema vs control): -44%
[1]; Table 4, second series, Formula B pH 3.5, 3.16 % (W/W), 31.5 mg/kg dermal, p < 0.05
  3 Hr. Edema: 0.48 ± 0.17 ml ± S.D.
[1]; comparative study, Example 74 applied dermally to rats
  Activity against edema compared with indomethacin applied dermally or orally: more active against the Edema than indomethacin applied dermally or orally
[1]; comparative study
  Activity applied dermally compared with orally for a given dose: about as active applied dermally as it was orally for a given dose

## O=C([O-])c1ccccc1O.[Na+] [sodium salicylate]
[3]
  Skin permeation compared with salicylic acid: permeates poorly compared with salicylic acid

## Cc1ccc(C(=O)c2cc(Cl)cc(CC(=O)O)c2N)cc1 [Example 55, 2-Amino-3-(4-methylbenzoyl)-5-chlorobenzeneacetic acid, sodium salt, hydrate [4:3]]
[1]; [4]
  Measurement of Edema at 3 hr.: 0.33 ± 0.20 ml ± S.D.
[1]; [5]
  % Change (edema vs control): -64%

## COc1ccc2c(c1)c(CC(=O)O)c(C)n2C(=O)c1ccc(Cl)cc1 [indomethacin, reference compound]
[1]; comparative study
  Activity applied dermally compared with orally for a given dose: markedly less active when applied dermally than when given orally for a given dose
